Legend:
[1] = test system: PC-3 prostate cancer cells; experiment: Annexin V-apoptosis assay; type: cell-based, human; settings: 48 hours; for apoptotic cell number versus control and Etoposide: 50 uM and 100 uM
Method: (§1) Hormone-independent and metastatic PC-3 prostate cancer cells were purchased from the American Type Culture Collection (Manassas, Va., USA) and cultured in RPMI-1640 supplemented with 10% fetal bovine serum. Etoposide was purchased from Sigma, Avastin from Roche.
Cells were treated with 50 uM and 100 uM compounds and Etoposide for 48 hours, harvested, washed with PBS and resuspended in binding buffer (0.01 M HEPES pH 7.4, 0.14 M NaCl, […] CaCl2) (BD Bioscience, san Jose, Calif., USA), stained with […] annexin V and 7-AAD (BD Bioscience). The cells were incubated for 15 min at room temperature in the dark, and the rate of apoptosis was measured by flow cytometry (Calibur, BD) and analyzed using FCS Express Professional software (De NoVo software, CA, USA).

[2] = test system: PC-3 prostate cancer cells; experiment: Cell cycle analysis; type: cell-based, human; settings: for G2/M phase blockage: 50 uM and 100 uM, analogue 3 statement at 100 uM
Method: as §1
Cells were harvested after the treatment, then fixed in ice-cold 70% EtOH. Cells then were washed with PBS and incubated in DNA staining buffer, containing 1 mg/ml sodium citrate (Sigma), 0.1 mg/ml propidium iodide (Sigma), 3 ul/ml TritonX-100, 0.02 mg/ml RNaseA (Sigma) for 30 min at 4° C. The cell cycle profiles were measured in a FACS Calibur cytofluorometer (BD) and analyzed using FCS Express Professional (De NoVo software, CA, USA) and Multicycle (Phoenix Flow Systems, Inc., CA, USA) softwares.

[3] = test system: PC-3 prostate cancer cells; experiment: Cell proliferation assay (trypan blue viable cell count) and IC50 determination; type: cell-based, human; settings: PC-3 cells; for IC50: Homo sapiens, viable cells after 48 hours, read-out: IC50 for cell growth inhibition; for concentration from which statistically significant cell growth inhibition started: 48 hours
Method: All new synthesized compounds and Etoposide were first dissolved in 100% DMSO at initial concentration of 100 mM, and then diluted at final concentration of 200 uM in culture medium. Commercial form of Avastin (25 mg/ml) was diluted to appropriate concentrations in culture medium.
as §1
For cell counting a total of 6×10^4 cells at a density of 0.3×10^6/ml were seeded in 96-well plate. The cells were treated with compounds, Etoposide or Avastin as positive controls at 1 uM, 5 uM, 10 uM, 20 uM, 50 uM, 100 uM for 48 hours. For Avastin 5 uM, 20 uM and 50 uM concentrations were used. The cells were labeled with trypan blue and the viable cells were quantified.

PC-3 tumors = experiment: PC-3 prostate cancer xenograft mouse model of tumor growth and metastasis; type: in vivo, athymic NMRI nude mice; settings: tumors about 250 mm3, IV once every other day for 14 days; Etoposide 20 mg/kg, Substance X 40 mg/kg (FIG. 4)
Text: Athymic NMRI nude mice between 6-8 weeks old (Taconic; Bomholt, Denmark) were used. Prostate cancer xenograft mouse model was created by implanting hormone-independent PC3 tumor cells subcutaneously into athymic nude mice as previously described (Wegiel B, Bjartell A, Tuomela J, et al.: Multiple cellular mechanisms related to cyclin Al in prostate cancer invasion and metastasis. Journal of the National Cancer Institute 100: 10221036, 2008).
PC-3 cells were purchased from American Type Culture Collection (Manassas, V A) and cultured in RPMI-1640 supplemented with 10% Fetal Bovine Serum. PC-3 cells at 1×10^6/per mouse were used. The mice were divided into three groups (6 mice per group). The first group allowed tumors to grow between 170-400 mm^3 in size before starting the treatment. The second group allowed tumors to grow between 550-650 mm^3 in size before starting the treatment. The third group allowed tumors to grow between 700-800 mm^3 in size before starting the treatment. The tumor diameters were measured twice weekly using calipers. The tumor volumes were calculated using an equation of a*(b2/2) where a and b represent the length and width of the tumor, respectively.
The treatment of the compound of Example 1 (also referred to herein as “Substance X”) or PBS containing 5% DMSO (vehicle) as Control was started when tumors reached the desired size as described above. In the first experimental setting, Substance X was administered intravenously once every other day. In the second experimental setting, Substance X was administrated orally once every other day. Tumor growth was assessed periodically as described in Results. The mice were sacrificed after treatment by euthanization via isofluorene inhalation. Lymph node, liver, lung, spleen and femurs were removed from each mouse. Half of the tumor tissues were used for histology and immunohistochemical analysis. For histology analysis, tissues were fixed in 4% paraformaldehyde and embedded in paraffin. The sections were stained with hematoxylineosin (H&E) or imunohistochemical stained with antibodies and analyzed under an optical microscope. The other half of the tissues were used for protein analysis and thus were snapfrozen in liquid nitrogen. The body weights of the mice on the first and last day of the treatment were collected and compared. Tumor invasion and metastasis were examined in various tissues from the sacrificed mice.
For a comparison study, mice with tumors at 190-250 mm^3 in size were treated with the cytotoxic drug Etoposide (Sigma) at a dose of 20 mg/kg via IV injection once every other day. The tumor size was measured as described in the Results. Three mice were treated with Etoposide or the vehicle as Control. The mice were sacrificed and the tissues were collected as described above.

Compound	apoptotic cell number versus control and Etoposide [1]	Early apoptosis, % ([1]; 50 uM) [%]	Late apoptosis/necrosis, % ([1]; 50 uM) [%]	Total, % (apoptosis) ([1]; 50 uM) [%]	Early apoptosis, % ([1]; 100 uM) [%]	Late apoptosis/necrosis, % ([1]; 100 uM) [%]	Total, % (apoptosis) ([1]; 100 uM) [%]	G0/G1, % ([2]; 50 uM) [%]	S + G2 + M, % ([2]; 50 uM) [%]	G2/M phase blockage [2]	G0/G1, % ([2]; 100 uM) [%]	S + G2 + M, % ([2]; 100 uM) [%]	IC50 [3] [µM]	concentration from which statistically significant cell growth inhibition started [3] [µM]	effect on PC-3 cell number ([3]; 48 hours (FIG. 12))	tumor growth, comparison of Etoposide and Substance X (PC-3 tumors)
CN1CC(=O)N2[C@H](c3c[nH]c4ccc(Cl)cc34)c3cc4c(cc3C[C@H]2C1=O)OCO4 [Analogue 1, (2S,8S)-2-(5-chloro-1H-indol-3-yl)-6-methyl-13,15-dioxa-3,6-diazatetracyclo-[8.7.0.0^3,8.0^12,16]heptadeca-1(10),11,16-triene-4,7-dione]	increasing in both early and late apoptotic cell number	10.98	4.23	15.21	16.83	8.29	25.12	63.26	36.74	not	60.44	39.56	36	–	–	–
COc1ccc2[nH]cc([C@@H]3c4cc5c(cc4C[C@H]4C(=O)N(C)CC(=O)N34)OCO5)c2c1 [Analogue 2, (2S,8S)-2-(5-methoxy-1H-indol-3-yl)-6-methyl-13,15-dioxa-3,6-diazatetracyclo[8.7.0.0^3,8.0^12,16]heptadeca-1(10),11,16-triene-4,7-dione]	–	–	–	–	–	–	–	–	–	–	–	–	60	5	–	–
CN1CC(=O)N2[C@H](c3c[nH]c4c3ccc3ccccc34)c3cc4c(cc3C[C@H]2C1=O)OCO4 [Analogue 3, (2S,8S)-6-methyl-2-{1H-naphtho[1,2-b]pyrrol-3-yl}-13,15-dioxa-3,6-diazatetracyclo[8.7.0.0^3,8.0^12,16]heptadeca-1(10),11,16-triene-4,7-dione]	increasing in both early and late apoptotic cell number	15.21	6.55	21.76	17.51	5.52	23.03	67.52	32.48	–	51.77	48.23	32	5	–	–
CN1CC(=O)N2[C@H](c3cn(C)c4ccccc34)c3cc4c(cc3C[C@H]2C1=O)OCO4 [Analogue 4, (2S,8S)-6-methyl-2-(1-methyl-1H-indol-3-yl)-13,15-dioxa-3,6-diazatetracyclo-[8.7.0.0^3,8.0^12,16]heptadeca-1(10),11,16-triene-4,7-dione]	–	–	–	–	–	–	–	–	–	–	–	–	30	10	–	–
CN1CC(=O)N2[C@H](c3cn(Cc4ccccc4)c4ccccc34)c3cc4c(cc3C[C@H]2C1=O)OCO4 [Analogue 5, (2S,8S)-2-(1-benzyl-1H-indol-3-yl)-6-methyl-13,15-dioxa-3,6-diazatetracyclo-[8.7.0.0^3,8.0^12,16]heptadeca-1(10),11,16-triene-4,7-dione]	–	–	–	–	–	–	–	–	–	–	–	–	–	–	resulted in cell reduction	–
COc1cc([C@@H]2c3cc4c(cc3[C@@H](O[C@@H]3O[C@@H]5CO[C@@H](C)O[C@H]5[C@H](O)[C@H]3O)[C@H]3COC(=O)[C@H]23)OCO4)cc(OC)c1O [Etoposide, reference compound]	–	9.22	6.73	15.95	9.35	4.98	14.33	15.91	84.09	G2/M phase blockage	21.39	78.61	–	–	–	grew slowly

From patent publication US9066947B2, “Indolyl-substituted pyrazino[1,2-b]isoquinolines for cancer treatment” (Everest Biosciences, Inc., priority 2009, dated 2015)
